Test results from patent US7741327B2 (Hoffmann-La Roche Inc., priority 2008, dated 2010).

What follows are compounds tested against T1, Recombinant human liver GK1 (GST-GK) (Homo sapiens, UniProt P35557) (assay: In vitro glucokinase activity (G6PDH-coupled NADH assay)). Conditions: 30° C., 5 mM D-glucose, 10% DMSO.
T1 construct: made in house; host or cells: E. coli
T1 sequence (P35557 1-466 isoform P35557-2): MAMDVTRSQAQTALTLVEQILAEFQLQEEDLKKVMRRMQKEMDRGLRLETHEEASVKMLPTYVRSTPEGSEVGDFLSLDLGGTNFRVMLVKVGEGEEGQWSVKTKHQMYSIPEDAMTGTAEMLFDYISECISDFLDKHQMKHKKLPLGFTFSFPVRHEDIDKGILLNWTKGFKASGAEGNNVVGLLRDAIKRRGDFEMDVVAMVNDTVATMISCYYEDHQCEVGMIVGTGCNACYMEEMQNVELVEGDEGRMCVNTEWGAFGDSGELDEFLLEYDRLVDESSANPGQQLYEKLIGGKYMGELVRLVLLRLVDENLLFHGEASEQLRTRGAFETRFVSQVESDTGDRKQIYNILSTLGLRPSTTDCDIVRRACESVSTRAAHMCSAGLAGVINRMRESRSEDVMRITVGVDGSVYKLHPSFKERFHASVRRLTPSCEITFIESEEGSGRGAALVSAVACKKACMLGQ
Assay type: biochemical
Experimental: Glucokinase In Vitro Assay Protocol: Glucokinase (GK) was assayed by coupling the production of glucose-6-phosphate to the generation of NADH with glucose-6-phosphate dehydrogenase (G6PDH, 0.75-1 kunits/mg; Boehringer Mannheim, Indianapolis, Ind.) from Leuconostoc mesenteroides as the coupling enzyme (Scheme 2).
Recombinant human liver GK1 was expressed in E. coli as a glutathione S-transferase fusion protein (GST-GK) [Liang et al, 1995] and was purified by chromatography over a glutathione-Sepharose 4B affinity column using the procedure provided by the manufacturer (Amersham Pharmacia Biotech, Piscataway, N.J.).
The assay was conducted at 30° C. in a flat bottom 96-well tissue culture plate from Costar (Cambridge, Mass.) with a final incubation volume of 120 μL. The incubation reaction contained the following: 25 mM Hepes buffer (pH 7.1), 25 mM KCl, 5 mM D-glucose, 1 mM ATP, 1.8 mM NAD, 2 mM MgCl2, 1 μM sorbitol-6-phosphate, 1 mM dithiothreitol, test drug or 10% dimethylsulfoxide, ˜7 units/ml G6PDH, and GK (see below). All organic reagents were >98% pure and were from Boehringer Mannheim with the exceptions of D-glucose and Hepes which were from Sigma Chemical Co, St Louis, Mo. Test compounds were dissolved in dimethylsulfoxide and were added to the incubation reaction minus GST-GK in a volume of 12 μL to yield a final dimethylsulfoxide concentration of 10%. This mix was pre-incubated in the temperature controlled chamber of a SPECTRAmax 250 microplate spectrophotometer (Molecular Devices Corporation, Sunnyvale, Calif.) for 10 min to allow temperature equilibrium and then the reaction was started by the addition of 20 μL GST-GK.
After addition of enzyme, the increase in optical density (OD) at 340 nm was monitored spectrophotometrically to determine the rate of change (OD340 per min). The GK activity (OD340/min) in control wells (10% DMSO minus GK activators) was compared with the activity in wells containing test GK activators, and the concentration of activator that produced a 50% increase in the activity of GK, i.e., the SC1.5, was calculated. The table below provides the in vitro glucokinase activity for the compounds in the Examples: […]

| Compound | SC1.5 (concentration of activator that produced a 50% increase in the activity of GK) [µM] |
| --- | --- |
| COc1cccc(OC2=CC(=O)N(C(CC3CCOCC3)C(=O)Nc3ccn(CC(C)(C)O)n3)C2)c1Cl (centres unmarked) [Example 50, 2-[4-(2-Chloro-3-methoxy-phenoxy)-2-oxo-2,5-dihydro-pyrrol-1-yl]-N-[1-(2-hydroxy-2-methyl-propyl)-1H-pyrazol-3-yl]-3-(tetrahydro-pyran-4-yl)-propionamide] | 0.033 |
| COc1cccc(OC2=CC(=O)N([C@H](CC3CCOCC3)C(=O)Nc3ccn(CC(C)(C)O)n3)C2)c1Cl [Example 52, (R)-2-[4-(2-Chloro-3-methoxy-phenoxy)-2-oxo-2,5-dihydro-pyrrol-1-yl]-N-[1-(2-hydroxy-2-methyl-propyl)-1H-pyrazol-3-yl]-3-(tetrahydro-pyran-4-yl)-propionamide] | 1.027 |
| COc1cccc(OC2=CC(=O)N(C(CC3CCOCC3)C(=O)Nc3ccn(C[C@@H](O)CO)n3)C2)c1Cl (stereo partly drawn) [Example 53, 2-[4-(2-Chloro-3-methoxy-phenoxy)-2-oxo-2,5-dihydro-pyrrol-1-yl]-N-[1-((R)-2,3-dihydroxy-propyl)-1H-pyrazol-3-yl]-3-(tetrahydro-pyran-4-yl)-propionamide] | 0.053 |
| COc1cccc(OC2=CC(=O)N([C@@H](CC3CCCC3)C(=O)Nc3ccn(CC(C)(C)O)n3)C2)c1Cl [Example 54, (S)-2-[4-(2-chloro-3-methoxy-phenoxy)-2-oxo-2,5-dihydro-pyrrol-1-yl]-3-cyclopentyl-N-[1-(2-hydroxy-2-methyl-propyl)-1H-pyrazol-3-yl]-propionamide] | 0.008 |
| COc1cccc(OC2=CC(=O)N([C@@H](CC3CCCC3)C(=O)Nc3ccn(C[C@@H](O)CO)n3)C2)c1Cl [Example 55, (S)-2-[4-(2-Chloro-3-methoxy-phenoxy)-2-oxo-2,5-dihydro-pyrrol-1-yl]-3-cyclopentyl-N-[1-((R)-2,3-dihydroxy-propyl)-1H-pyrazol-3-yl]-propionamide] | 0.007 |
| COC1=CC(=O)N([C@@H](CC2CCCCC2)C(=O)Nc2ccn(CC(C)(C)O)n2)C1 [Example 56, (S)-3-Cyclohexyl-N-[1-(2-hydroxy-2-methyl-propyl)-1H-pyrazol-3-yl]-2-(4-methoxy-2-oxo-2,5-dihydro-pyrrol-1-yl)-propionamide] | 4.985 |
| COc1cccc(OC2=CC(=O)N([C@@H](CC3CCCCC3)C(=O)Nc3ccn(CC(C)(C)O)n3)C2)c1Cl [Example 57, (S)-2-[4-(2-Chloro-3-methoxy-phenoxy)-2-oxo-2,5-dihydro-pyrrol-1-yl]-3-cyclohexyl-N-[1-(2-hydroxy-2-methyl-propyl)-1H-pyrazol-3-yl]-propionamide] | 0.012 |
| CNC(=O)NC(=O)C(CC1CCCCC1)N1CC(Oc2cccc(OC)c2Cl)=CC1=O (centres unmarked) [Example 58, 1-{2-[4-(2-Chloro-3-methoxy-phenoxy)-2-oxo-2,5-dihydro-pyrrol-1-yl]-3-cyclohexyl-propionyl}-3-methyl-urea] | 1.597 |

Second part, the compound after the results:

| SC1.5 (concentration of activator that produced a 50% increase in the activity of GK) [µM] | Compound |
| --- | --- |
| 1.082 | CC(C)(O)Cn1ccc(NC(=O)C(Cc2c(F)cccc2F)N2CC(Oc3c(F)cccc3F)=CC2=O)n1 (centres unmarked) [Example 59, 2-[4-(2,6-Difluoro-phenoxy)-2-oxo-2,5-dihydro-pyrrol-1-yl]-3-(2,6-difluoro-phenyl)-N-[1-(2-hydroxy-2-methyl-propyl)-1-H-pyrazol-3-yl]-propionamide] |
| 0.99 | CC(C)(O)Cn1ccc(NC(=O)[C@H](CC2CCCCC2)N2CC(OCC3COc4ccccc4O3)=CC2=O)n1 (stereo partly drawn) [Example 60, (S)-3-Cyclohexyl-2-[4-(2,3-dihydro-benzo[1,4]dioxin-2-ylmethoxy)-2-oxo-2,5-dihydro-pyrrol-1-yl]-N-[1-(2-hydroxy-2-methyl-propyl)-1-H-pyrazol-3-yl]-propionamide] |
| 0.006 | CC(C)(O)Cn1ccc(NC(=O)[C@H](CC2CCCCC2)N2CC(Oc3ccccc3Cl)=CC2=O)n1 [Example 61, (S)-2-[4-(2-Chloro-phenoxy)-2-oxo-2,5-dihydro-pyrrol-1-yl]-3-cyclohexyl-N-[1-(2-hydroxy-2-methyl-propyl)-1-H-pyrazol-3-yl]-propionamide] |
| 0.01 | CC1(C)OC[C@@H](Cn2ccc(NC(=O)[C@H](CC3CCCCC3)N3CC(Oc4ccccc4Cl)=CC3=O)n2)O1 [Example 62] |
| 0.009 | O=C(Nc1ccn(C[C@@H](O)CO)n1)[C@H](CC1CCCCC1)N1CC(Oc2ccccc2Cl)=CC1=O [Example 63, (S)-2-[4-(2-Chloro-phenoxy)-2-oxo-2,5-dihydro-pyrrol-1-yl]-3-cyclohexyl-N-[1-((R)-2,3-dihydroxy-propyl)-1-H-pyrazol-3-yl]-propionamide] |
| 0.527 | CC(C)C[C@@H](C(=O)Nc1ccn(C[C@@H]2COC(C)(C)O2)n1)N1CC(Oc2ccccc2Cl)=CC1=O [Example 65] |
| 0.028 | CC(C)(O)Cn1ccc(NC(=O)[C@H](CC2CCCCC2)N2CC(Oc3c(F)cccc3Cl)=CC2=O)n1 [Example 67, (S)-2-[4-(2-Chloro-6-fluoro-phenoxy)-2-oxo-2,5-dihydro-pyrrol-1-yl]-3-cyclohexyl-N-[1-(2-hydroxy-2-methyl-propyl)-1H-pyrazol-3-yl]-propionamide] |
| 0.055 | Cn1ccc(NC(=O)[C@H](CC2CCCCC2)N2CC(Oc3c(F)cccc3Cl)=CC2=O)n1 [Example 68, (S)-2-[4-(2-Chloro-6-fluoro-phenoxy)-2-oxo-2,5-dihydro-pyrrol-1-yl]-3-cyclohexyl-N-(1-methyl-1H-pyrazol-3-yl)-propionamide] |
| 0.047 | COC(=O)c1ccc(NC(=O)[C@H](CC2CCCCC2)N2CC(Oc3c(F)cccc3Cl)=CC2=O)nc1 [Example 69, 6-{(S)-2-[4-(2-Chloro-6-fluoro-phenoxy)-2-oxo-2,5-dihydro-pyrrol-1-yl]-3-cyclohexyl-propionylamino}-nicotinic acid methyl ester] |
| 0.048 | O=C(O)c1ccc(NC(=O)[C@H](CC2CCCCC2)N2CC(Oc3c(F)cccc3Cl)=CC2=O)nc1 [Example 70, 6-{(S)-2-[4-(2-Chloro-6-fluoro-phenoxy)-2-oxo-2,5-dihydro-pyrrol-1-yl]-3-cyclohexyl-propionylamino}-nicotinic acid] |
| 0.058 | Cl.O=C(Nc1cnccn1)[C@H](CC1CCCCC1)N1CC(Oc2c(F)cccc2Cl)=CC1=O [Example 71, (S)-2-[4-(2-Chloro-6-fluoro-phenoxy)-2-oxo-2,5-dihydro-pyrrol-1-yl]-3-cyclohexyl-N-pyrazin-2-yl-propionamide Hydrochloride] |
| 0.024 | CC(C)(O)Cn1ccc(NC(=O)[C@H](CC2CCCCC2)N2CC(Oc3c(F)ccc(Cl)c3F)=CC2=O)n1 [Example 72, (S)-2-[4-(3-Chloro-2,6-difluoro-phenoxy)-2-oxo-2,5-dihydro-pyrrol-1-yl]-3-cyclohexyl-N-[1-(2-hydroxy-2-methyl-propyl)-1H-pyrazol-3-yl]-propionamide] |
